Where two headings read alike, the source gives them in different places.
Key:
[1] = tested on: MCF 10A non-tumorigenic mammary epithelial cells; assay: MTT assay of MCF10A cells; format: cell-based, human; conditions: for IC50: Homo sapiens; for Selectivity index: IC50 for MCF 10A divided by IC50 for +SA cell line
Method: MCF 10A (ATCC cat # CRL-10317) normal human non-tumorigenic mammary epithelial cells were maintained in serum-free defined medium consisting of Dulbecco's modified Eagle's medium (DMEM)/F12 containing 5% horse serum, 1% penicillin/streptomycin, 0.5 μg/mL hydrocortisone, 100 ng/mL cholera toxin, 10 μg/mL insulin, and 20 ng/mL epidermal growth factor (rhEGF). For subculturing, cells were rinsed twice with sterile Ca2+ and Mg2+-free phosphate buffered saline (PBS) and incubated in 0.25% trypsin containing 0.025% EDTA in PBS for 5 min at 37° C. The released cells were centrifuged, re-suspended in fresh media and counted using a hemocytometer. For testing, MCF 10A cells were plated at a density of 10×10^4 cells/well. A stock solution of the compounds was prepared in DMSO. DMSO was added to all treatment media such that the final DMSO concentration was the same in all treatment groups within a given experiment and was always less than 0.1%. The compounds were fed in serum free media. MCF10A mammary epithelial cell's viable number was determined by MTT colorimetric assay. […] IC50 values were calculated by non-linear regression using statistical software. The selectivity index indicated in the table represents the IC50 value for the MCF 10A cell line divided by the IC50 value for the +SA cell line.

[2] = tested on: MCF7 human breast cancer cell line; assay: MTT assay of MCF7 cells; format: cell-based; conditions: Homo sapiens, media containing 1% fetal bovine serum
Method: (§1) MDA-MB-231 and MCF7 cells were plated at a density of 8×10^3 cells/well and 10^4 cells/well in 96-well culture plates, respectively. The compounds were fed in serum free media containing 5% and 1% fetal bovine serum for MDA-MB-231 and MCF7 cells, respectively.

[3] = tested on: MDA-MB-231 human breast cancer cell line; assay: MTT assay of MDA-MB-231 cells; format: cell-based; conditions: Homo sapiens, media containing 5% fetal bovine serum
Method: as §1

[4] = tested on: MDA-MB-231 human breast cancer cells; assay: Wound-healing assay (cell migration); format: cell-based; conditions: Homo sapiens; for inhibition at 5 µM: MDA-MB-231, 24 h, wound-healing assay; for IC50: MDA-MB-231, wound-healing assay, dose response, read-out: IC50 antimigratory activity
Method: The highly metastatic human breast cancer MDA-MB-231 cells were cultured in RPMI 1640 medium containing 10 mM HEPES, 4 mM L-glutamine, 10% fetal bovine serum, penicillin (100 IU/mL), and streptomycin (50 μg/mL), and grown in a 5% CO2 atmosphere at 37° C. Cells were plated onto sterile 24-well and allowed to recover for a confluent cell monolayer formed in each well (>95% confluence). Wounds were then inflicted to each cell monolayer using a sterile 200 μL pipette tip. Media were removed, cells monolayers were washed twice with PBS, and then fresh media containing test compounds were added to each well. Test compounds were prepared in DMSO at 5 μM concentration and added to the plates, each in triplicate using DMSO as negative control. The incubation was carried out for 24 h under serum-starved conditions, after which media was removed and cells were fixed and stained using a staining composition sold under the trade name Diff Quick (Dade Behring Diagnostics, Aguada, Puerto Rico). The stain comprised a fixative reagent containing 1.8 mg/L triarylmethane dye in methyl alcohol; a first solution of 1 g/L xanthene dye, buffer, and sodium azide (0.01%) as preservative; and a second solution of 1.25 g/L Thiazine dye mixture (0.625 g/L azure A and 0.625 g/L methylene blue) and buffer. The number of cells migrated on the scratched wound were counted under the microscope in three or more randomly selected fields (magnification: 400×). Final results are expressed as mean±SEM per 400× field. The wound-healing assay is a simple method for the study of directional cell migration in vitro.
Compounds were tested for their ability to inhibit the migration of the highly metastatic MDA-MB-231 human breast cancer cells in the wound-healing assay using the procedure described above. Compounds 6, 10, 12, 13, 24, 26, 27, and 29 inhibited the migration of more than 50% of the human breast cancer cells MDA-MB-231 in the wound healing assay at 5 μM dose. […] The antimigratory activity of tocotrienols may be enhanced by a terminal aromatic functionality. The presence of electron withdrawing group, such as nitro in Compound 29, may eliminate the antiproliferative activity yet retain the antimigratory activity of the compound. While the electron donating groups, such as OH and OMe found in Compounds 23 and 26, respectively, retained both antiproliferative and antimigratory activities.
Utilizing similar procedures follow-up testing was conducted on a variety of compounds using a range of compound concentrations. The results of follow-up antimigratory testing are shown in FIG. 35B and Table III below with IC50 values calculated using statistical software.

[5] = MCF 10A non-tumorigenic cells, Table I, read-out: IC50 MCF 10A
[6] = MCF-10A, MCF10A cells, Table II, non-linear regression, read-out: MCF10A (IC50)

| SMILES | IC50 [1, 5] | IC50 [2] | IC50 [3] | inhibition at 5 µM [4] | IC50 [4] | IC50 [1, 6] | Selectivity index [1] |
| --- | --- | --- | --- | --- | --- | --- | --- |
| CC(C)=CCC/C(C)=C/CC/C(C)=C/CC[C@]1(C)CCc2c3c(cc(C)c2O1)OCN(CCO)C3 [Compound 10, 2-((R)-6,8-dimethyl-8-((3E,7E)-4,8,12-trimethyltrideca-3,7,11-trienyl)-9,10-dihydrochromeno[5,6-e][1,3]oxazin-2(1H,3H,8H)-yl)ethanol] | 3.1 µM | 6 µM | > 5 µM | > 50% | 1.3 µM | – | – |
| CC(C)=CCC/C(C)=C/CC/C(C)=C/CC[C@]1(C)CCc2c3c(c(C)c(C)c2O1)OCN(CCCO)C3 [Compound 12, 3-((R)-5,6,8-trimethyl-8-((3E,7E)-4,8,12-trimethyltrideca-3,7,11-trienyl)-9,10-dihydrochromeno[5,6-e][1,3]oxazin-2(1H,3H,8H)-yl)propan-1-ol] | – | > 20 µM | 9.6 µM | > 50% | 8.1 µM | – | – |
| CC(C)=CCC/C(C)=C/CC/C(C)=C/CC[C@]1(C)CCc2c3c(cc(C)c2O1)OCN(CCCCCO)C3 [Compound 18, 5-((R)-6,8-dimethyl-8-((3E,7E)-4,8,12-trimethyltrideca-3,7,11-trienyl)-9,10-dihydrochromeno[5,6-e][1,3]oxazin-2(1H,3H,8H)-yl)pentan-1-ol] | 4.6 µM | 9.1 µM | 9 µM | – | – | 4.6 µM | 6.57 |
| COc1ccc(CCN2COc3cc(C)c4c(c3C2)CC[C@@](C)(CC/C=C(\C)CC/C=C(\C)CCC=C(C)C)O4)cc1OC [Compound 24, (R)-2-(3,4-dimethoxyphenethyl)-6,8-dimethyl-8-((3E,7E)-4,8,12-trimethyltrideca-3,7,11-trienyl)-1,2,3,8,9,10-hexahydrochromeno[5,6-e][1,3]oxazine] | – | – | – | > 50% | – | – | – |
| CC(C)=CCC/C(C)=C/CC/C(C)=C/CC[C@]1(C)CCc2c3c(cc(C)c2O1)OCN(CCc1ccc(O)cc1)C3 [Compound 27, 4-(2-((R)-6,8-dimethyl-8-((3E,7E)-4,8,12-trimethyltrideca-3,7,11-trienyl)-9,10-dihydrochromeno[5,6-e][1,3]oxazin-2(1H,3H,8H)-yl)ethyl)phenol] | 1.9 µM | 18.2 µM | > 5 µM | > 50% | 2.4 µM | 1.9 µM | 2.09 |
| CC(C)=CCC/C(C)=C/CC/C(C)=C/CC[C@]1(C)CCc2c3c(c(C)c(C)c2O1)OCN(CCCCO)C3 [Compound 35, 4-((R)-5,6,8-trimethyl-8-((3E,7E)-4,8,12-trimethyltrideca-3,7,11-trienyl)-9,10-dihydrochromeno[5,6-e][1,3]oxazin-2(1H,3H,8H)-yl)butan-1-ol] | – | > 20 µM | 13.8 µM | – | 10.7 µM | – | – |
| CC(C)=CCC/C(C)=C/CC/C(C)=C/CC[C@]1(C)CCc2c3c(c(C)c(C)c2O1)OCN(CCCCCCO)C3 [Compound 37, 6-((R)-5,6,8-trimethyl-8-((3E,7E)-4,8,12-trimethyltrideca-3,7,11-trienyl)-9,10-dihydrochromeno[5,6-e][1,3]oxazin-2(1H,3H,8H)-yl)hexan-1-ol] | – | > 20 µM | > 10 µM | – | – | – | – |
| CC(C)=CCC/C(C)=C/CC/C(C)=C/CC[C@]1(C)CCc2c3c(c(C)c(C)c2O1)OCN(CCCCCCCCO)C3 [Compound 39, 8-((R)-5,6,8-trimethyl-8-((3E,7E)-4,8,12-trimethyltrideca-3,7,11-trienyl)-9,10-dihydrochromeno[5,6-e][1,3]oxazin-2(1H,3H,8H)-yl)octan-1-ol] | 2 µM | > 20 µM | > 20 µM | – | 4.7 µM | 2 µM | 1.43 |
| CC(C)=CCC/C(C)=C/CC/C(C)=C/CC[C@]1(C)CCc2c3c(c(C)c(C)c2O1)OCN(CCCCCCCCCCO)C3 [Compound 41, 10-((R)-5,6,8-trimethyl-8-((3E,7E)-4,8,12-trimethyltrideca-3,7,11-trienyl)-9,10-dihydrochromeno[5,6-e][1,3]oxazin-2(1H,3H,8H)-yl)decan-1-ol] | – | 19.4 µM | 15.7 µM | – | – | – | – |
| CC(C)=CCC/C(C)=C/CC/C(C)=C/CC[C@]1(C)CCc2c3c(cc(C)c2O1)OCN(CCCCCCCCCCO)C3 [Compound 42, 10-((R)-6,8-dimethyl-8-((3E,7E)-4,8,12-trimethyltrideca-3,7,11-trienyl)-9,10-dihydrochromeno[5,6-e][1,3]oxazin-2(1H,3H,8H)-yl)decan-1-ol] | – | 4.6 µM | 12.4 µM | – | 7.2 µM | – | – |
| CC(C)=CCC/C(C)=C/CC/C(C)=C/CC[C@]1(C)CCc2c3c(c(C)c(C)c2O1)OCN(CCCCCCCCCCCCO)C3 [Compound 43, 12-((R)-5,6,8-trimethyl-8-((3E,7E)-4,8,12-trimethyltrideca-3,7,11-trienyl)-9,10-dihydrochromeno[5,6-e][1,3]oxazin-2(1H,3H,8H)-yl)dodecan-1-ol] | – | > 20 µM | > 50 µM | – | – | – | – |
| CC(C)=CCC/C(C)=C/CC/C(C)=C/CC[C@]1(C)CCc2c3c(cc(C)c2O1)OCN(CCCCCCCCCCCCO)C3 [Compound 44, 12-((R)-6,8-dimethyl-8-((3E,7E)-4,8,12-trimethyltrideca-3,7,11-trienyl)-9,10-dihydrochromeno[5,6-e][1,3]oxazin-2(1H,3H,8H)-yl)dodecan-1-ol] | – | > 20 µM | > 50 µM | – | – | – | – |
